Source: patent US20210084902A1, “FUNGICIDAL MIXTURE COMPRISING SUBSTITUTED 3-PHENYL-5-(TRIFLUOROMETHYL)-1,2,4-OXADIAZOLES” (BASF SE, priority 2017, published 2021)
Read-outs that look alike come from different tables or passages of the source.

Columns and labels:
Assay type in all cases: cell-based
Septoria tritici = test: Fungicidal activity against Septoria tritici, micro titer plate (MTP) test; details: for Observed efficacy / inhibition of growth at 1 ppm / inhibition of growth at […] / inhibition of growth at 4 ppm: Table V.4, component B alone
[1] = system: Colletotrichum orbiculare; test: Fungicidal activity against Colletotrichum orbiculare in the microtiterplate test
Pyricularia oryzae = test: microbe, parasite or virus in culture; details: for Observed efficacy: single compound
Botrytis cinerea = test: Fungicidal activity against Botrytis cinerea, micro titer plate (MTP) test; details: component B alone; for inhibition of growth at […] / inhibition of growth at 1 ppm: Botrytis cinerea, 168 h, read-out: Observed efficacy
[2] = Colletotrichum orbiculare, read-out: Observed efficacy
[3] = Zymoseptoria tritici, 168 h, 1 ppm, read-out: Observed efficacy
[4] = Pyricularia oryzae, 168 h, read-out: Observed efficacy
[5] = Colletotrichum orbiculare, 0.25 ppm, read-out: Observed efficacy
[6] = Colletotrichum orbiculare, 1 ppm, read-out: Observed efficacy
[7] = Zymoseptoria tritici, 168 h, 0.25 ppm, read-out: Observed efficacy
[8] = Colletotrichum orbiculare, 0.063 ppm, read-out: Observed efficacy
[9] = Zymoseptoria tritici, 168 h, 0.016 ppm, read-out: Observed efficacy
[10] = Zymoseptoria tritici, 168 h, 4 ppm, read-out: Observed efficacy
[11] = Zymoseptoria tritici, 168 h, 0.063 ppm, read-out: Observed efficacy
[12] = Colletotrichum orbiculare, 0.016 ppm, read-out: Observed efficacy

`CCN(C)C=Nc1cc(C)c(Oc2nc(Cc3ccc(Cl)cc3)ns2)cc1C` [K.1.29, N′-[4-[[3-[(4-chorophenyl)methyl]-1,2,4-thiadiazo-5-yl]oxy]-2,5-dimethyl-phenyl]-N-ethyl-N-methyl-formamidine] was tested, and the Observed efficacy (Septoria tritici; 4 ppm) was 6.
Compound `CC(C1CC1)C(O)(Cn1cncn1)c1ccc(Cl)cc1` (stereo not drawn) [Cyproconazol, cyproconazole] has an inhibition of growth at 4 ppm [1, 2] of 4%.
`O=C(Nc1ccccc1-c1ccc(Cl)cc1)c1cccnc1Cl` [Boscalid, boscalid] was tested, and the inhibition of growth at 1 ppm (Septoria tritici; [3]) was 61%, the inhibition of growth at 4 ppm (Pyricularia oryzae; [4]) was 5% and the inhibition of growth at […] [1, 5] was 0%. For the same compound, the inhibition of growth at 1 ppm [1, 6] was 0%.
For `CC(C)c1ccc(Cl)cc1CN(C(=O)c1c(C(F)F)nn(C)c1F)C1CC1` [Isoflucypram, N-[(5-chloro-2-isopropyl-phenyl)methyl]-N-cyclopropyl-3-(difluoromethyl)-5 fluoro-1-methyl-pyrazole-4-carboxamide], the inhibition of growth at […] (Septoria tritici; [7]) was 61%, the inhibition of growth at 1 ppm (Septoria tritici; [3]) was 62% and the inhibition of growth at […] (Botrytis cinerea; 0.25 ppm) was 53%. It also gave an inhibition of growth at 1 ppm (Pyricularia oryzae; [4]) of 11%.
Work on `CC(C)(C)C(O)(CCc1ccc(Cl)cc1)Cn1cncn1` (stereo not drawn) [Tebuconazol, tebuconazole] yielded an inhibition of growth at 0.0663 ppm (Pyricularia oryzae; [4]) of 4%, an inhibition of growth at […] [1, 8] of 2% and an inhibition of growth at […] [1, 5] of 14%.
`Cn1cc(C(=O)Nc2ccccc2-c2cc(F)c(F)c(F)c2)c(C(F)F)n1` [Fluxapyroxad, fluxapyroxad] gave an Observed efficacy ([1]; 0.004 ppm) of 1.
`Cc1cccc(-n2nnn(C)c2=O)c1COc1ccn(-c2ccc(Cl)cc2)n1` [A.1.25, 1-[2-[[1-(4-chlorophenyl)pyrazol-3-yl]oxymethyl]-3-methyl-phenyl]-4-methyl-tetrazol-5-one] gave an inhibition of growth at 0.004 ppm (Septoria tritici; Zymoseptoria tritici, 168 h, read-out: Observed efficacy) of 3% and an inhibition of growth at 0.004 ppm (Pyricularia oryzae; [4]) of 4%.
Work on `CNC(=O)/C(=N/OC)c1ccccc1COc1cc(C)ccc1C` [Dimoxystrobin, dimoxystrobin] yielded an Observed efficacy (Botrytis cinerea; 1 ppm) of 14% and an Observed efficacy ([1]; 1 ppm) of 71.
`CO/N=C(/C(=O)OC)c1ccccc1COc1ccccc1C` [Kresoxim-methyl, kresoxim-methyl] was tested, and the inhibition of growth at […] [1, 5] was 45%.
`COc1ccnc(C(=O)NC2COC(=O)[C@H](Cc3ccccc3)[C@@H](OC(=O)C(C)C)[C@H](C)OC2=O)c1O` (stereo partly drawn) [A.2.3, [(6S,7R,8R)-8-benzyl-3-[(3-hydroxy-4-methoxy-pyridine-2-carbonyl)amino]-6-methyl-4,9-dioxo-1,5-dioxonan-7-yl] 2-methylpropanoate] was tested, and the inhibition of growth at […] (Septoria tritici; [9]) was 52%, the inhibition of growth at […] (Botrytis cinerea; 0.25 ppm) was 0% and the inhibition of growth at 1 ppm (Botrytis cinerea; 1 ppm) was 11%. For the same compound, the inhibition of growth at […] [1, 8] was 47% and the inhibition of growth at […] [1, 5] was 77%.
For `Cc1nn(C)cc1C(=O)Nc1cccc2c1C(C)CC2(C)C` (stereo not drawn) [A.3.24, 1,3-dimethyl-N-(1,1,3-trimethylindan-4-yl)pyrazole-4-carboxamide], the inhibition of growth at […] (Septoria tritici; [7]) was 25%, the inhibition of growth at 1 ppm (Septoria tritici; [3]) was 76% and the inhibition of growth at […] (Botrytis cinerea; 0.25 ppm) was 41%. It also gave an inhibition of growth at […] [1, 5] of 3% and an inhibition of growth at 1 ppm [1, 6] of 12%.
With `CCN(C)C=Nc1cc(Br)c(OC(C)c2cc(F)cc(F)c2)nc1C` (stereo not drawn) [K.1.31, N′-[5-bromo-6-[1-(3,5-difluorophenyl)ethoxy]-2-methyl-3-pyridyl]-N-ethyl-N-methyl-formamidine] the inhibition of growth at 1 ppm (Septoria tritici; [3]) was 5%, the inhibition of growth at 4 ppm (Septoria tritici; [10]) was 62% and the inhibition of growth at 1 ppm (Botrytis cinerea; 1 ppm) was 53%.
With `COC(=O)C(C)N(C(=O)Cc1ccccc1)c1c(C)cccc1C` (stereo not drawn) [Benalaxyl, benalaxyl] the inhibition of growth at 1 ppm (Pyricularia oryzae; [4]) was 2%, the inhibition of growth at 4 ppm (Pyricularia oryzae; [4]) was 8% and the inhibition of growth at 4 ppm [1, 2] was 13%.
Work on `CC1(C)CCC(=Cc2ccc(Cl)cc2)C1(O)Cn1cncn1` (stereo not drawn) [Triticonazol, triticonazole] yielded an inhibition of growth at 1 ppm [1, 6] of 11%.
For `N#Cc1sc2c(=O)c3ccccc3c(=O)c=2sc1C#N` [Dithianon, dithianon], the inhibition of growth at […] [1, 8] was 21%.
`CC1CC(C)(C)c2cccc(NC(=O)c3cccnc3C(F)F)c21` (stereo not drawn) [A.3.32, 2-(difluoromethyl)-N-(1,1,3-trimethyl-indan-4-yl)pyridine-3-carboxamide] gave an inhibition of growth at […] (Septoria tritici; [7]) of 22%, an inhibition of growth at 1 ppm (Septoria tritici; [3]) of 70% and an inhibition of growth at […] (Botrytis cinerea; 0.25 ppm) of 32%. The inhibition of growth at 1 ppm [1, 6] was 15%.
For `O=c1c2cc(F)ccc2nc(-n2cncn2)n1-c1ccc(Cl)cc1Cl` [Fluquinconazol, fluquinconazole], the inhibition of growth at […] [1, 8] was 3% and the inhibition of growth at 1 ppm [1, 6] was 12%.
`OC(Cc1ccccc1Cl)(Cn1nc[nH]c1=S)C1(Cl)CC1` (stereo not drawn) [Prothioconazol, prothioconazole] showed an inhibition of growth at […] [1, 5] of 14%.
`CC[C@H]1CC(C)(C)c2cccc(NC(=O)c3cccnc3C(F)F)c21` [A.3.34, 2-(difluoromethyl)-N-[(3S)3-ethyl-1,1-dimethyl-indan-4-yl]pyridine-3-carboxamide] was tested, and the inhibition of growth at […] (Septoria tritici; [7]) was 17%, the inhibition of growth at […] (Botrytis cinerea; 0.25 ppm) was 1% and the inhibition of growth at 1 ppm (Botrytis cinerea; 1 ppm) was 51%. It also gave an inhibition of growth at 1 ppm [1, 6] of 14%.
`CCCC1COC(Cn2cncn2)(c2ccc(Cl)cc2Cl)O1` (stereo not drawn) [Propiconazol, propiconazole] gave an inhibition of growth at […] (Septoria tritici; [11]) of 17%, an inhibition of growth at […] [1, 12] of 3% and an inhibition of growth at […] [1, 8] of 3%. The inhibition of growth at […] [1, 5] was 15%.
`CC1(C)CCC(Cc2ccc(Cl)cc2)C1(O)Cn1cncn1` (stereo not drawn) [Metconazol, metconazole] showed an inhibition of growth at […] [1, 8] of 11%.
mancozeb was tested, and the Observed efficacy (Septoria tritici; 1 ppm) was 9 and the Observed efficacy ([1]; 1 ppm) was 24.
`CCCCCOC(=O)Nc1cccc(CO/N=C(/c2ccccc2)c2nnnn2C)n1` [K.1.42, pentyl N-[6-[[(Z)-[(1-methyltetrazol-5-yl)-phenyl-methylene]amino]oxymethyl]-2-pyridyl]carba-mate] was tested, and the Observed efficacy (Pyricularia oryzae; 1 ppm) was 9 and the Observed efficacy ([1]; 1 ppm) was 21.
For `COc1cc(C)c(C(=O)c2c(OC)ccc(Br)c2C)c(OC)c1OC` [Metrafenon], the Observed efficacy (Septoria tritici; 4 ppm) was 1, the Observed efficacy (Septoria tritici; 16 ppm) was 1 and the Observed efficacy (Pyricularia oryzae; 4 ppm) was 5. The Observed efficacy (Pyricularia oryzae; 16 ppm) was 21.
With `CON=C(C(=O)OC)c1ccccc1CON=C(C)c1cccc(C(F)(F)F)c1` [Trifloxystrobin, trifloxystrobin] the inhibition of growth at […] (Septoria tritici; [9]) was 43%, the inhibition of growth at […] (Botrytis cinerea; 0.063 ppm) was 3% and the inhibition of growth at […] [1, 12] was 9%.
`COC(=O)Nc1nc2ccccc2[nH]1` [Carbendazim, carbendazim] showed an inhibition of growth at […] [1, 8] of 60%.
With `CCN(C)C=Nc1cc(Br)c(OC2Cc3ccccc3C2)nc1C` [K.1.30, N′-(5-bromo-6-indan-2-yloxy-2-methyl-3-pyridyl)-N-ethyl-N-methyl-formamidine] the inhibition of growth at 1 ppm (Septoria tritici; [3]) was 0% and the inhibition of growth at 4 ppm (Septoria tritici; [10]) was 0%.
`CCCOCC(C)Oc1nc(C)c(N=CN(C)CC)cc1Br` (stereo not drawn) [K.1.54, N′-[5-bromo-2-methyl-6-(1-methyl-2-propoxy-ethoxy)-3-pyridyl]-N-ethyl-N-methyl-formamidine] gave an inhibition of growth at 1 ppm (Septoria tritici; [3]) of 3% and an inhibition of growth at 1 ppm (Pyricularia oryzae; [4]) of 19%.
Work on `CCC(=O)OCOc1c(OC)ccnc1C(=O)NC1COC(=O)[C@H](Cc2ccccc2)[C@@H](OC(=O)C(C)C)[C@H](C)OC1=O` (stereo partly drawn) [A.2.5, [(6S,7R,8R)-8-benzyl-3-[[4-methoxy-3-(propanoyloxymethoxy)pyridine-2-carbonyl]amino]-6-methyl-4,9-dioxo-1,5-dioxonan-7-yl] 2-methylpropanoate] yielded an inhibition of growth at […] (Septoria tritici; [11]) of 33%, an inhibition of growth at 1 ppm (Botrytis cinerea; 1 ppm) of 6% and an inhibition of growth at […] [1, 5] of 72%.
`COC(=O)[C@@H](C)N(C(=O)Cc1ccccc1)c1c(C)cccc1C` [Benalaxyl-M, benalaxyl-M] was tested, and the Observed efficacy (Botrytis cinerea; 4 ppm) was 7%, the Observed efficacy (Pyricularia oryzae; 1 ppm) was 3 and the Observed efficacy (Pyricularia oryzae; 4 ppm) was 12. The Observed efficacy ([1]; 1 ppm) was 2.
`CC1CC(C)(C)c2c(F)ccc(NC(=O)c3cn(C)nc3C(F)F)c21` (stereo not drawn) [Fluindapyr, 3-(difluoromethyl)-N-(7-fluoro-1,1,3-trimethyl-indan-4-yl)-1-methyl-pyrazole-4-carboxamide] showed an inhibition of growth at […] (Septoria tritici; [7]) of 21%, an inhibition of growth at 1 ppm (Septoria tritici; [3]) of 58% and an inhibition of growth at […] (Botrytis cinerea; 0.25 ppm) of 21%. The inhibition of growth at 1 ppm [1, 6] was 12%.
`CO/N=C(/C(=O)OC)c1ccccc1COc1ccccc1C` [Kresoximmethyl] showed an inhibition of growth at […] (Septoria tritici; [11]) of 41% and an inhibition of growth at 1 ppm (Pyricularia oryzae; [4]) of 58%.
`CC(C)CC(C)c1sccc1NC(=O)c1cn(C)nc1C(F)(F)F` (stereo not drawn) [Penthiopyrad, penthiopyrad] showed an inhibition of growth at […] (Septoria tritici; [11]) of 5%, an inhibition of growth at […] (Septoria tritici; [7]) of 28% and an inhibition of growth at […] [1, 5] of 8%.
In the case of `O=C(NCCc1ncc(C(F)(F)F)cc1Cl)c1ccccc1C(F)(F)F` [Fluopyram, fluopyram], the inhibition of growth at […] (Septoria tritici; [11]) is reported as 13%, the inhibition of growth at […] (Septoria tritici; [7]) is reported as 33% and the inhibition of growth at […] [1, 5] is reported as 15%.
With `COc1cc(C)c(C(=O)c2c(OC)ccc(Br)c2C)c(OC)c1OC` [Metrafenone, metrafenone] the inhibition of growth at 4 ppm [1, 2] was 14%.
`Cn1cc(C(=O)Nc2cccc3c2[C@@H]2CC[C@H]3C2=C(Cl)Cl)c(C(F)F)n1` (racemic) [Benzovindiflupyr, benzovindiflupyr] was tested, and the Observed efficacy ([1]; 0.004 ppm) was 2.
With `O=C(Cc1ccccc1)N/C(=N\OCC1CC1)c1c(C(F)(F)F)ccc(F)c1F` [Cyflufenamid, cyflufenamid] the inhibition of growth at 16 ppm ([1]; Colletotrichum orbiculare, 16 ppm, read-out: Observed efficacy) was 11%.
`CCCCCCCCc1c(CC)nc2ncnn2c1N` [Ametoctradin, ametoctradin] showed an Observed efficacy (Pyricularia oryzae; 16 ppm) of 8, an Observed efficacy (Pyricularia oryzae; 63 ppm) of 13 and an Observed efficacy ([1]; 63 ppm) of 14.
`COc1cc(C)c(C(=O)c2c(OC)ncc(Cl)c2C)c(OC)c1OC` [Pyriofenon, pyriofenone] showed an Observed efficacy (Botrytis cinerea; 1 ppm) of 2%.
Work on `CO/C=C(/C(=O)OC)c1ccccc1Oc1cc(Oc2ccccc2C#N)ncn1` [Azoxystrobin, azoxystrobin] yielded an Observed efficacy ([1]; 0.004 ppm) of 1.
